Measurements taken from article PMC9917816, “STS1 and STS2 Phosphatase Inhibitor Baicalein Enhances the Expansion of Hematopoietic and Progenitor Stem Cells and Alleviates 5-Fluorouracil-Induced Myelosuppression” (International Journal of Molecular Sciences, 2023).

Assays:
[1] = biological target: T1, STS1-HP (STS1 histidine phosphatase domain) (Homo sapiens, UniProt Q8TF42); experiment: capillary electrophoresis, migration time shift; assay type: binding; conditions: 20 mM PBS, pH 7.0, 20 kV, UV 230 nm
T1 construct: gene UBASH3B

[2] = biological target: T2, STS2-HP (STS2 histidine phosphatase domain) (Homo sapiens, UniProt P57075); experiment: pNPP phosphatase inhibition assay, absorbance at […] nm; assay type: biochemical; conditions: read-out: % inhibition at 10 μg/mL
T2 construct: gene UBASH3A
T2 sequence (P57075 385-661 limits assumed): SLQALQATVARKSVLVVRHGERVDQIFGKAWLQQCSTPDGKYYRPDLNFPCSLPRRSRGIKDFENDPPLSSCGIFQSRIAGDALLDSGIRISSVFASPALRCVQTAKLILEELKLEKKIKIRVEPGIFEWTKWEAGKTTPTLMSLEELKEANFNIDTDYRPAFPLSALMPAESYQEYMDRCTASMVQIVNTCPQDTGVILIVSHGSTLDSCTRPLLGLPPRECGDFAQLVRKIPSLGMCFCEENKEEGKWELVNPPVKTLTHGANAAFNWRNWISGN

[3] = biological target: T1, STS1-HP (STS1 histidine phosphatase domain); experiment: as above; assay type: biochemical; conditions: pNPP substrate, pH 7.2, 25 °C, 10 min; name misprinted as baicalin in b9

T1 sequence (Q8TF42 380-649 limits assumed): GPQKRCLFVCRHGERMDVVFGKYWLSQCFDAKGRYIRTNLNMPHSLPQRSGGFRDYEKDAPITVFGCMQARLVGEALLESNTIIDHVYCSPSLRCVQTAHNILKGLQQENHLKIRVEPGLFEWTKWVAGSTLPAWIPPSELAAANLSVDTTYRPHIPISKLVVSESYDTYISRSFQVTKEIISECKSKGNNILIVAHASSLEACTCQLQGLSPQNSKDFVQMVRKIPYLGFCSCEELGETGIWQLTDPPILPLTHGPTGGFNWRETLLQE

inhibition at 10 µg/mL [2]: 13.8%
Structure (SMILES): O=c1cc(-c2ccccc2)oc2cc(O)c(O)c(O)c12 [baicalein]
capillary electrophoresis, migration time shift [1]: migration times of STS1 and STS2 proteins were markedly delayed when BC was added
% inhibition at 10 μg/mL [3]: (BC) could significantly inhibit the phosphatase activity of STS1 in vitro
